Test results reported in patent US10227610B2, “Methods and compositions for enhancing nuclease-mediated gene disruption” (SANGAMO THERAPEUTICS, INC., priority 2013, dated 2019).

What was measured:
[1] = test system: K562 cells; assay: ZFN-mediated targeted integration of ssOligo at CCR5 locus, RFLP assay and 96 colony sequencing; assay type: cell-based, human; conditions: Day 3; for effect on targeted integration: KU55933 10 μM, Olaparib 5 μM added to DNA-PKcs inhibitor
Description: K562 cells were transfected by Amaxa® electroporation system with plasmid DNA encoding a CCR5-specific ZFN pair (see, U.S. Pat. No. 7,951,925) and a single-stranded oligonucleotide (ssOligo) (120 bp) which has homology to the target region and harbors a unique restriction site (Avr II). The cells then were treated twice with small molecule inhibitors described in Example 1 (outlined in FIG. 2A). In particular, the inhibitors Olaparib (PARP1/2-inhibitor) and NU7441 (DNA-PKcs-inhibitor) were added 5 hours after the ZFN-encoding DNA delivery at concentration of 5 μM and 3 μM, respectively. As a control, the ATM inhibitor KU55933 was added at a concentration of 10 μM. After 15 hours, fresh inhibitors were added to the medium to counteract the decay of the inhibitors in the cell culture medium. After a further 54 hours, the cells were harvested and genomic DNA was prepared for Day 3 analysis by Surveyor™/CelI assay, RFLP analysis and DNA sequencing.
The RFLP assay was carried out by digestion of the PCR amplified target locus with a restriction enzyme cutting in the integrated ssOligo. For DNA sequencing, the genomic target region of the ZFN was amplified by PCR, topo-cloned and 96 individual clones were sequenced.

[2] = test system: Hepa 1-6 cells; assay: Mutagenic repair (% indels) after albumin-specific ZFN, Surveyor/CelI assay and clone sequencing; assay type: cell-based
Description: In particular, the inhibitors Olaparib (PARP1-inhibitor) and NU7441 (DNA-PKcs inhibitor) were added 3 hours after mRNA delivery at concentration of 5 μM and 3-5 μM respectively. As a control, the ATM inhibitor KU55933 was added at a concentration of 10 μM (ATM has no direct role in DSB repair but is related to DNA-PKcs). After 15 hours, fresh inhibitors were added to the medium to counteract the decay of the inhibitors in the cell culture medium.
After a further 54 hours, cells were harvested and genomic DNA was prepared for Day 3 analysis by Surveyor™/CelI assay and DNA sequencing. For DNA sequencing the genomic target region of the ZFN was amplified by PCR, topo-cloned and 96 individual clones were sequenced. The sequences were analyzed and the results used to divide the clones into groups by the genome type (e.g. wild type genomes, those with insertions and/or deletions, and those with other modifications). At Day 3 harvest about a third of the cells were re-seeded in fresh medium without inhibitors and were grown until day 10 when they were harvested and analyzed by Surveyor™/CelI assay.

[3] = test system: CHO K1 cells; assay: Targeted integration of double stranded donor at glutamine synthetase (GS) locus, RFLP; assay type: cell-based
Description: The use of DNA PKcs inhibitors during insertion of a double stranded donor in CHO K1 cells was also tested. For this experiment, a donor that was delivered either via a plasmid (FIG. 4E) or via a PCR fragment (FIG. 4F). Briefly, CHO K1 cells were transfected with Nucleofector Kit V on an Amaxa® instrument. The transfection components and their dosages were as follows: one million CHO K1 cells suspended in 100 μl of Nucleofection™ Solution V; 4 μg each of two in vitro transcribed ZFN mRNAs engineered for inducing DSBs at the glutamine synthetase locus (GS) in CHO cells (see, e.g., U.S. Pat. No. 8,153,399); 2 μg (FIG. 4E) or 4 μg (FIG. 4F) of in vitro transcribed CHO or human Rad52 mRNA; 10 μg of plasmid donor (3.8 kb) or PCR fragment donor (1.1 kb). The plasmid donor and the PCR fragment donor both carried the same target integration sequence, containing two 500 bp homologous arms, two loxP sites, and a multiple cloning site.
DNA-PKcs inhibitor NU7026 or NU7441 was added into 2 ml per well of pre-warmed culture medium in a 6-well plate at concentration of 20 μM or 16 respectively, before transfected cells were added into the medium. Cells were grown in the inhibitor-containing medium for 24 hours at 37° C. and 5% CO2. The medium was then replaced with fresh medium without inhibitor. DMSO was used as inhibitor blank control. […]

[4] = test system: K562 cells; assay: TALEN-mediated targeted integration at human CCR5 locus, deep sequencing; assay type: cell-based
Description: See, e.g., U.S. Pat. No. 8,586,526. K562 cells were transfected by AMAXA with plasmid DNA encoding either hCCR5 TALENs or ZFNs and then the cells were treated with DMSO or DNA-PKcs inhibitor NU7441. Cells were harvested at Day 3 and Day 10 and genomic PCR was analyzed after PCR by deep sequencing.

[5] = test system: HEK293 cells; assay: Targeted integration of ssDNA oligo donor at AAVS1 locus, RFLP; assay type: cell-based, human; conditions: NU7441 10 μM
Description: We next used the inhibitors to measure their effect on targeted integration of single-stranded donors. Briefly, HEK293 and MCF7 cells were transfected with Nucleofector Kit V and MCF10A cells were transfected with Nuleofector™ Kit L on an Amaxa® instrument. The transfection components and their dosages were as follows: 0.8 million cells suspended in 100 μL of nucleofection solution; 3 μg each of two in vitro transcribed ZFN mRNAs engineered for inducing DSBs at the AAVS1 locus in human cells (see, e.g., U.S. Pat. No. 8,110,379); 0.3 nmol of a 100-nt ssDNAoligo donor. The oligo donor carried a HindIII restriction site at the position of 20 bp upstream of the ZFN cleavage site, and the HindIII site was used as marker for target integration analysis by RFLP. DNA-PKcs inhibitor NU7441 was added into 2 ml per well of pre-warmed culture medium in a 6-well plate at concentration of 10 μM for HEK293 and MCF7, and 15 or 20 μM for MCF10A before transfected cells were added into the medium. Cells were grown in the inhibitor-containing medium for 24 hours at 37° C. and 5% CO2. The medium was then replaced with fresh medium without inhibitor. DMSO was used as inhibitor blank control. For genomic DNA preparation, HEK293 and MCF10A cells were harvested 3 days after transfection, and MCF7 cells were harvested 5 days after nucleofection. […]

[6] = test system: CD34+ cells; assay: Targeted integration of ssOligo at CCR5 in primary cells, clone sequencing; assay type: cell-based; conditions: NU7441 3 μM, Day 3; at the expense of 5-nucleotide duplications and deletions
Description: Specifically, donor derived CD34+ cells were transfected 3 days after culture in medium suppressing differentiation. This was carried out by the BTX electroporation system with mRNA DNA encoding a CCR5-specific ZFN pair and a ssOligonucleotide (120 bp) which has homology to the target region and harbors a unique restriction site (Avr II). The cells were then treated twice with small molecule inhibitors as described in Example 1. In particular, the inhibitor NU7441 (DNA-PKcs-inhibitor) was added 3 hours after mRNA delivery at a concentration of 3 μM. After 15 hours, fresh inhibitors were added to the medium to counteract the decay of the inhibitors in the cell culture medium. After a further 54 hours, cells were harvested and genomic DNA was prepared for Day 3 analysis by DNA sequencing. For DNA sequencing the genomic target region of the ZFN was amplified by PCR, topo-cloned, and 96 individual clones were sequenced.

[7] = test system: K562 cells; assay: Nickase ZFN with ssOligo at CCR5, Surveyor/CelI assay and sequencing; assay type: cell-based, human
Description: K562 cells were transfected by Amaxa electroporation system with plasmid DNA encoding a CCR5-specific ZFN pair (see, U.S. Pat. No. 7,951,925) and a single-stranded oligonucleotide (ssOligo) (120 bp) which has homology to the target region and harbors a unique restriction site (Avr II). […] Due to the less deleterious nature of this kind of DNA damage, recombination events mediated by ssDNA breaks may be preferable over DSBs. However, the frequency of gene modification mediated via ssDNA breaks is very low. DNA-PKcs and PARP inhibitors were used in an attempt to increase the frequency of gene modification mediated via ssDNA breaks (“nicks”).
Briefly, the transfected K562 cells were treated twice with either PARP1/2 inhibitor (Olaparib-5 μM) or DNA-PKcs inhibitor (NU7441-3 μM) 5 hours and 15 hours after transfection to counteract the decay of the inhibitors in the cell culture medium. After a further 54 hours, cells were harvested and genomic DNA was prepared for Day 3 analysis by Surveyor™/CelI assay, RFLP analysis and DNA sequencing as described in Example 1. The RFLP assay was carried out by digestion of the PCR amplified target locus with a restriction enzyme cutting in the integrated ssOligo. For DNA sequencing, the genomic target region of the ZFN was amplified by PCR, topo-cloned, and 96 individual clones were sequenced.

[8] = test system: K562 cells; assay: Targeted integration of AAVS1 oligo with double-stranded cleaving or nickase ZFNs, HindIII digestion; assay type: cell-based, human; conditions: NU1025 for 24 hr or 48 hr
Description: In another experiment, K562 cells were treated with the PARP1 inhibitor NU1025. Briefly, two million K562 cells were nucleofected with 5 μg of double-stranded cleaving or nickase ZFNs specific for AAVS1 (U.S. Pat. No. 8,110,379) with or without 3 μl of an antisense AAVS1 oligo (100 μM). The cells were immediately treated with PARP inhibitor NU1025 after nucleofection for 24 hr or 48 hr. All cells were harvested 48 hr after nucleofection. 1.0 μg of PCR DNA was subjected to HindIII digestion.

`O=C(c1cc(Cc2n[nH]c(=O)c3ccccc23)ccc1F)N1CCN(C(=O)C2CC2)CC1` [Olaparib] was tested, and the “effect on targeted integration” value [1] was “did not further increase”.
With `O=c1cc(N2CCOCC2)oc2c(-c3cccc4c3sc3ccccc34)cccc12` [NU7441] the “increase of mutagenic repair” value ([2]; Day 10, after withdrawal of inhibitors) was “about 2 fold”, the “increase of targeted integration” value ([1]; NU7441 3 μM, RFLP and 96 colony sequencing) was 2-3 fold and the “increase of PCR fragment donor-based target integration” value ([3]; PCR fragment donor) was “about 5 fold”. The TALEN-mediated targeted integration ([4]; Day 3, vs DMSO) was “up to two fold”, the “share of all genome editing events that are targeted integrations” value ([4]; TALENs, after NU7441 treatment) was “more than half” and the “unwanted mutagenic events (Indels)” value ([4]; TALENs, after NU7441 treatment) was “drastically reduced”. The “targeted integration of a single stranded donor” value [5] was “increased”, the targeted integration [6] was “slight increase” and the “CelI signal (indels)” value ([7]; Nickase ZFNs co-transfected with ssOligo, NU7441 3 μM, Olaparib 5 μM) was 7%. For the same molecule, the “clones with non-WT sequence (perfect targeted integration of the ssOligo)” value ([7]; sequencing of 96 clones) was “one of 96”.
For `Cc1nc2c(O)cccc2c(=O)[nH]1` [NU1025], the “integration of AAVS1 oligo” value [8] was “detectable integration”.
For `O=c1cc(-c2cccc3c2Sc2ccccc2S3)oc(N2CCOCC2)c1` [KU55933], the “effect on mutagenic repair” value ([2]; KU55933 10 μM control) was “slight decrease” and the “effect on targeted integration” value [1] was “no effect”.
In the case of `O=c1cc(N2CCOCC2)oc2c1ccc1ccccc12` [NU7026], the “plasmid donor-based target integration” value ([3]; NU7026 alone, 20 μM) is reported as “no apparent increase”.
